Experimental data from patent US8933123B2, “Polymorphic forms of O-desmethyl-venlafaxine succinate” (Cadila Healthcare Limited, priority 2010, dated 2015).

Assay: Storage stability of packed crystalline forms (water content and polymorphic conversion by X-ray powder diffraction)
Format: physicochemical
Text: The crystalline form of O-desmethyl-venlafaxine succinate obtained in example-5 or example-6 were stored under nitrogen atmosphere and packed in a non-permeable bag tied with a thread, keeping primary packing inside a black color polyethylene bag containing oxygen busters and sealing it, placing above the non-permeable bag inside a triple laminated bag containing oxygen busters and sealing it, and placing the sealed triple laminated bag inside a closed high density polyethylene (HDPE) container.

[1] = storage for 3 months at 25° C. and a relative humidity of 60%
[2] = storage for 3 months at 40° C. and a relative humidity of 75%

Structure (SMILES)	crystalline Form-I or Form-II detected by X-ray powder diffraction after storage [1]	water content after storage [1] [%]	crystalline Form-I or Form-II detected by X-ray powder diffraction after storage [2]	water content after storage [2] [%]
CN(C)CC(c1ccc(O)cc1)C1(O)CCCCC1.O=C(O)CCC(=O)O (centres unmarked) [Form “Z1”, O-desmethyl-venlafaxine succinate]	no detectable amount of crystalline Form-I or Form-II	≤ 1.5	no detectable amount of crystalline Form-I or Form-II	≤ 1.5
CN(C)CC(c1ccc(O)cc1)C1(O)CCCCC1.O=C(O)CCC(=O)O (centres unmarked) [Form “Z”, O-desmethyl-venlafaxine succinate]	no detectable amount of crystalline Form-I or Form-II	≤ 3.0	no detectable amount of crystalline Form-I or Form-II	≤ 3.0
